Series [1] is described as follows: log P determination by HPLC (EEC Directive 79/831 Annex V.A8). The series is classed as physicochemical. The procedure: The measurements were carried out using an Agilent 1100 LC system with a 50*4.6 Zorbax Eclipse C18 1.8 μm column (oven temperature 55° C., flow rate 2.0 ml/min).
The following mobile phases were used:
Mobile phase A: acetonitrile+1000 μl of formic acid/l
Mobile phase B: Millipore water+900 μl of formic acid/l

Series [2] concerns caterpillars of the armyworm (Spodoptera frugiperda). The experiment in a line: Spodoptera frugiperda test (SPODFR spray treatment). The format is in vivo. The note with it: for pest or weed control at 100 g/ha: Spodoptera frugiperda, foliar, read-out: effect in % (caterpillars killed). From the text: Solvent: 78.0 parts by weight of acetone
Setting [3] is: application rate 100 g/ha, maize leaf discs.
Setting [4] is: reversed-phase HPLC, Zorbax Eclipse C18 column, determined by HPLC according to EEC Directive 79/831 Annex V.A8, read-out: log P.

Like-named read-outs stand apart in the source and are kept apart here.

`Cc1cc(I)cc(C(=O)NC2CC2)c1NC(=O)c1cc(Cn2nnc(C(F)F)n2)nn1-c1ncccc1Cl` [Example 275] had a chromatographic logP in series [1] (log P) of 2.96. In addition, the pest or weed control at 100 g/ha in series [2] (in Zea mays) is not below 80%.

Consider `Cc1cc(C#N)cc(C(N)=O)c1NC(=O)c1cc(Cn2nnc(C(F)(F)F)n2)nn1-c1ncccc1Br` [Example 324], for which the chromatographic logP in series [1] (reversed-phase HPLC, Zorbax Eclipse C18 column, by HPLC according to EEC Directive 79/831 Annex V.A8, read-out: log P) worked out at 2.46. The pest or weed control at 100 g/ha in series [2] (setting [3]) was not below 80%.

Compound `CSC[C@H](C)NC(=O)c1cc(Cl)cc(Cl)c1NC(=O)c1cc(Cn2nnc(C(F)F)n2)nn1-c1ncccc1Cl` [Example 288] showed a chromatographic logP in series [1] (log P) of 3.13. Also, in series [2] (in Zea mays), the pest or weed control at 100 g/ha was not below 80%.

`CNC(=O)c1cc(S(C)(=O)=O)cc(C)c1NC(=O)c1cc(Cn2nnnc2C(F)(F)F)nn1-c1ccccc1Cl` [Example 524]: the chromatographic logP in series [1] (setting [4]) stood at 2.43.

In series [1] (log P), `CSC[C@H](C)NC(=O)c1cc(I)cc(C)c1NC(=O)c1cc(Cn2nnc(C(F)F)n2)nn1-c1ncccc1Cl` [Example 278] gave a chromatographic logP of 3.41. Also, the pest or weed control at 100 g/ha in series [2] (in Zea mays) is not below 80%.

With `Cc1cc(Cl)cc(C(=O)NC(C)(C)C)c1NC(=O)c1cc(Cn2nnnc2C(F)(F)C(F)(F)F)nn1-c1ccccc1Cl` [Example 536], the chromatographic logP in series [1] (setting [4]) stood at 4.41. Also, the pest or weed control at 100 g/ha in series [2] (setting [3]) is not below 80%.

In the case of `COCC(C)(C)NC(=O)c1cc(C#N)cc(C)c1NC(=O)c1cc(Cn2nnc(C(F)(F)F)n2)nn1-c1ncccc1Cl` [Example 356], the chromatographic logP in series [1] (log P) was 3.29.

On to `Cc1cc(C#N)cc(C(N)=O)c1NC(=O)c1cc(Cn2nnc(C(F)F)n2)nn1-c1ncccc1Cl` [Example 306], for which the chromatographic logP in series [1] (log P) was 1.97. Further, the pest or weed control at 100 g/ha in series [2] (in Zea mays) was not below 80%.

Consider `Cc1cc(F)cc(C(=O)NC2CC2)c1NC(=O)c1cc(Cn2nnc(C(F)F)n2)nn1-c1ncccc1Cl` [Example 294], for which the chromatographic logP in series [1] (log P) was 2.41. Moreover, the pest or weed control at 100 g/ha in series [2] (in Zea mays) was not below 80%.

In series [1] (log P), `Cc1cc(C#N)cc(C(=O)NC(C)C2CCC2)c1NC(=O)c1cc(Cn2nnc(C(F)(F)F)n2)nn1-c1ncccc1Cl` (stereo not shown) [Example 90] showed a chromatographic logP of 3.63.

`Cc1cc(C#N)cc(C(N)=O)c1NC(=O)c1cc(Cn2nnc(C(F)(F)F)n2)nn1-c1ccccc1Cl` [Example 439]: the chromatographic logP in series [1] (setting [4]) amounted to 2.82.

Turning to `Cc1cc(Cl)cc(C(=O)NC(C)(C)C)c1NC(=O)c1cc(Cn2nnc(C(F)(F)F)n2)nn1-c1ccccc1Cl` [Example 534], in series [1] (setting [4]), the chromatographic logP is 4.36. Further, in series [2] (setting [3]), the pest or weed control at 100 g/ha was not below 80%.

With `Cc1cc(C)c(NC(=O)c2cc(Cn3nnc(C(F)(F)F)n3)nn2-c2ncccc2Cl)c(C(=O)NCC2CC2)c1` [Example 83], the chromatographic logP in series [1] (log P) is 3.35. In series [2] (in Zea mays), the pest or weed control at 100 g/ha was not below 80%.

On to `Cc1cc(C#N)cc(C(=O)NCC#N)c1NC(=O)c1cc(Cn2nnc(C(F)(F)C(F)(F)F)n2)nn1-c1ncccc1Br` [Example 416], for which, in series [1] (setting [4]), the chromatographic logP was 2.8.

As to `Cc1cc(Cl)cc(C(=O)NC(C)(C)C)c1NC(=O)c1cc(Cn2nnc(C(F)(F)C(F)(F)F)n2)nn1-c1ncccc1Br` [Example 419], the chromatographic logP in series [1] (setting [4]) turned out to be 4.23.

In series [1] (log P), `Cc1cc(C#N)cc(C(=O)NCCCCCCO)c1NC(=O)c1cc(Cn2nnc(C(F)(F)F)n2)nn1-c1ncccc1Cl` [Example 94] registered a chromatographic logP of 2.71.

Consider `CSC[C@H](C)NC(=O)c1cc(C#N)cc(C)c1NC(=O)c1cc(Cn2nnnc2C(F)(F)F)nn1-c1ncccc1Cl` [Example 193], for which, in series [1] (log P), the chromatographic logP is 2.92.

Regarding `Cc1cc(F)cc(C(=O)NC2CCC2)c1NC(=O)c1cc(Cn2nnc(C(F)(F)F)n2)nn1-c1ncccc1Cl` [Example 51], the chromatographic logP in series [1] (log P) was found to be 3.23. Moreover, in series [2] (in Zea mays), the pest or weed control at 100 g/ha was not below 80%.

In series [1] (log P), `COCCNC(=O)c1cc(C#N)cc(C)c1NC(=O)c1cc(Cn2nnnc2C(F)(F)F)nn1-c1ncccc1Cl` [Example 209] had a chromatographic logP of 2.4.

Regarding `CCNC(=O)c1cc(F)cc(C)c1NC(=O)c1cc(Cn2nnc(C(F)(F)F)n2)nn1-c1ncccc1Cl` [Example 35], the chromatographic logP in series [1] (log P) came to 2.88. The pest or weed control at 100 g/ha in series [2] (in Zea mays) was not below 80%.

`Cc1cc(C#N)cc(C(=O)NCCN)c1NC(=O)c1cc(Cn2nnc(C(F)(F)F)n2)nn1-c1ncccc1Cl` [Example 123] showed a chromatographic logP in series [1] (log P) of 1.63.

In series [1] (log P), `Cc1cc(Cl)cc(C(N)=O)c1NC(=O)c1cc(Cn2nnc(C(F)(F)F)n2)nn1-c1ncccc1Cl` [Example 106] came in with a chromatographic logP of 2.76. Further, the pest or weed control at 100 g/ha in series [2] (in Zea mays) was not below 80%.

For `Cc1cc(Cl)cc(C(=O)NCC#N)c1NC(=O)c1cc(Cn2nnc(C(F)(F)C(F)(F)F)n2)nn1-c1ncccc1Br` [Example 421], in series [1] (setting [4]), the chromatographic logP stood at 3.31.

As for `CCNC(=O)c1cc(C#N)cc(C)c1NC(=O)c1cc(C(C)n2nnc(C(F)(F)F)n2)nn1-c1ncccc1Cl` (stereo not shown) [Example 429], in series [1] (log P), the chromatographic logP was found to be 3.11.

Compound `CCNC(=O)c1cc(Cl)cc(Cl)c1NC(=O)c1cc(Cn2nnc(C(F)F)n2)nn1-c1ncccc1Cl` [Example 285] came in with a chromatographic logP in series [1] (log P) of 2.7. Moreover, the pest or weed control at 100 g/ha in series [2] (in Zea mays) was not below 80%.

Take `Cc1cc(Br)cc(C(N)=O)c1NC(=O)c1cc(Cn2nnnc2C(F)(F)F)nn1-c1ncccc1C(F)(F)F` [Example 454]: the chromatographic logP in series [1] (setting [4]) was determined as 2.72.

For the compound `CNC(=O)c1cc(Cl)cc(C)c1NC(=O)c1cc(Cn2nnnc2-c2ccc(C(F)(F)F)cc2)nn1-c1ncccc1Cl` [drawing 602], in series [2] (4 g/ha), the “Kill in %/7 days” value is 33%.

As for `Cc1cc(Cl)cc(C(=O)NC(C)C)c1NC(=O)c1cc(Cn2nnc(C(F)(F)C(F)(F)F)n2)nn1-c1ncccc1Br` [Example 417], the chromatographic logP in series [1] (setting [4]) came to 3.87.

As to `Cc1cc(C#N)cc(C(=O)NCCC(F)(F)F)c1NC(=O)c1cc(Cn2nnc(C(F)(C(F)(F)F)C(F)(F)F)n2)nn1-c1ncccc1Cl` [Example 414], in series [1] (setting [4]), the chromatographic logP worked out at 3.92.

In the case of `Cc1cc(Cl)cc(C(N)=O)c1NC(=O)c1cc(Cn2nnc(C(F)(F)C(F)(F)F)n2)nn1-c1ncccc1Br` [Example 418], the chromatographic logP in series [1] (setting [4]) was 3.13.

Take `Cc1cc(Br)cc(C(=O)NCC#N)c1NC(=O)c1cc(Cn2nnnc2C(F)(F)F)nn1-c1ncccc1C(F)(F)F` [Example 451]: the chromatographic logP in series [1] (setting [4]) was 2.9.

As to `CNC(=O)c1cc(C#N)cc(C)c1NC(=O)c1cc(Cn2nnc(C(F)(F)C(F)(F)F)n2)nn1-c1ncccc1Br` [Example 422], the chromatographic logP in series [1] (setting [4]) stood at 3.03.

`Cc1cc(Cl)cc(C(=O)NC(C)C)c1NC(=O)c1cc(Cn2nnc(C(F)(F)C(F)(F)F)n2)nn1-c1ncccc1Cl` [drawing 599]: the “Kill in %/7 days” value in series [2] (0.8 g/ha) came out at 100%.

As for `Cc1cc(Br)cc(C(=O)NC(C)(C)C)c1NC(=O)c1cc(Cn2nnc(C(F)(F)F)n2)nn1-c1ncccc1Br` [Example 409], in series [1] (setting [4]), the chromatographic logP was determined as 4.

As to `CNC(=O)c1cc(Cl)cc(C)c1NC(=O)c1cc(Cn2nnc(C(F)(F)C(F)(F)F)n2)nn1-c1ncccc1Br` [Example 415], the chromatographic logP in series [1] (setting [4]) came to 3.36.

In the case of `CC(NC(=O)c1cc(Cl)cc(Cl)c1NC(=O)c1cc(Cn2nnc(C(F)F)n2)nn1-c1ncccc1Cl)C1CC1` (stereo not shown) [Example 283], the chromatographic logP in series [1] (log P) stood at 3.23.

On to `Cc1cc(Cl)cc(C(=O)NC2CC2)c1NC(=O)c1cc(Cn2nnc(C(F)(F)C(F)(F)F)n2)nn1-c1ncccc1Br` [Example 420], for which the chromatographic logP in series [1] (setting [4]) worked out at 3.62.

As for `CNC(=O)c1cc(Cl)cc(C)c1NC(=O)c1cc(Cn2nnnc2C(F)(F)F)nn1-c1ncccc1Cl` [drawing 601], the “Kill in %/7 days” value in series [2] (4 g/ha) was determined as 100%.

In the case of `CCNC(=O)c1cc(I)cc(C)c1NC(=O)c1cc(Cn2nnc(C(F)F)n2)nn1-c1ncccc1Cl` [Example 276], the chromatographic logP in series [1] (log P) turned out to be 2.98.

Source of the values: patent US8324390B2, “Tetrazole-substituted anthranilamides as pesticides” (Bayer CropScience AG, priority 2008, dated 2012).
